Here are results for 1 molecule from patent publication US11345659B2, “Pipecolic esters for inhibition of the proteasome” (THE BOARD OF REGENTS OF THE UNIVERSY OF TEXAS SYSTEM, priority 2018, dated 2022).

Where two headings read alike, the source gives them in different places.

One experiment deals with T1, 26 S proteasome (Homo sapiens, UniProt P25787+P25789).
T1 construct: purified from erythrocytes; purchased Enzo Life Sciences, Inc. (Farmingdale, N.Y.); host or cells: human erythrocytes
The experiment can be described thus: 26 S proteasome challenged with mixture of three substrates (surrogate proteinase assay). Type of experiment: biochemical. Conditions: mixture of ChT-L, T-L and Casp-L substrates, 33.3 μM each; read-out: IC50, 26 S proteasome with substrates for all three peptidases. The procedure: (§1) Human housekeeping 20 S and 26 S and complexes purified from erythrocytes were purchased from Enzo Life Sciences, Inc. (Farmingdale, N.Y.). The 1 mg/ml stock 20 S proteasome was diluted to 0.2 mg/ml working solution in 50 mM Tris/HCl, pH 8 containing 20% glycerol (dilution buffer). For the 26 S proteasome stock, the dilution buffer was supplemented with 2 mM ATP, 1 mM MgCl2, and 1 mM DTT (dithiothreitol). The ChT-L peptidase activity was measured as arbitrary intensity units of fluorescence emitted by 7-amino-4-methylcoumarin (AMC) released from the canonical model peptide substrate succinyl-LeuLeuValTyr-methylcoumarin (SucLLVY-MCA; Bachem Bioscience Inc., Philadelphia, Pa.), used at concentration of 100 μM. Free AMC (Sigma-Aldrich, St. Louis, Mo.) was used as the standard. The Rpt5 C-terminal peptide was synthesized (standard solid-phase peptide chemistry) and purified to at least 98% purity by GenScript (Piscataway, N.J.). The Rpt5 peptide and the peptide substrate were dissolved in dimethylsulfoxide (DMSO) and such stock solutions were stored at −20° C. The total concentration of DMSO in final reaction mixtures never exceeded 3% (vol/vol).
The reaction was carried out in 96-well plates, in 100 μL of reaction mixture, for 1 hour at 37° C. In the case of 20 S proteasome, the reaction mixture consisted of 45 mM Tris/HCl, pH 8, 100 mM KCl with premixed 10 μM Rpt5 peptide and 100 μM Suc-LLVY-MCA, to which 200 ng (nearly […]) of proteasome and desired concentration of tested compounds in 1 μL of DMSO were added. […] The reaction rates were calculated from a linear segment of kinetic curves constructed from measurements in 1-minutes intervals (Fluoroskan Ascent plate reader; Thermo Fisher Scientific Inc., Waltham, Mass.). Reaction rates were calculated using a linear fit executed by Slope Analyzer and Enzyme Kinetics applications launched within Origin Pro 2017 (OriginLab). […]

For experiment [1], the target named is T2, 20 S human housekeeping proteasome (Homo sapiens, UniProt P25787+P25789).
T2 construct: purified from erythrocytes; purchased Enzo Life Sciences, Inc. (Farmingdale, N.Y.); host or cells: human erythrocytes
The experiment can be described thus: ChT-L peptidase activity of 20 S proteasome activated with Rpt5 peptide. Type of experiment: biochemical. The procedure:
as §1
The reaction was carried out in 96-well plates, in 100 μL of reaction mixture, for 1 hour at 37° C. In the case of 20 S proteasome, the reaction mixture consisted of 45 mM Tris/HCl, pH 8, 100 mM KCl with premixed 10 μM Rpt5 peptide and 100 μM Suc-LLVY-MCA, to which 200 ng (nearly […]) of proteasome and desired concentration of tested compounds in 1 μL of DMSO were added. To test the activity of 26 S proteasome under conditions challenging coordination of the three pairs of peptidase active centers, a mixture of three canonical substrates specific for the ChT-L (SucLLVY-MCA), trypsin-like (T-L; BocLRR-MCA) and caspase-like (Casp-L; Z-LLE-MCA) was used with each of the substrates at 33.3 μM (100 μM of the total substrate concentration). The reaction mixture in this case consisted of 50 mM Tris/HCl, pH 8, 20 mM NaCl, premixed with the substrates and 2 mM ATP, to which 200 ng (nearly 0.1 nmol) of the 26 S working solution and desired concentration of tested compounds in 0.5 μL of DMSO were added. The reaction rates were calculated from a linear segment of kinetic curves constructed from measurements in 1-minutes intervals (Fluoroskan Ascent plate reader; Thermo Fisher Scientific Inc., Waltham, Mass.). Reaction rates were calculated using a linear fit executed by Slope Analyzer and Enzyme Kinetics applications launched within Origin Pro 2017 (OriginLab). Specific activity of the control 20 S proteasome activated with the Rpt5 peptide was in the range of 1.4 to 2.3 nanomoles of AMC product released by 1 mg of 20 S per second (1.95±0.24; n=18). Specific activity of the control 26 S proteasome challenged with three substrates reached on average 0.28±0.06 nanomoles of AMC product released by 1 mg of the enzyme per second (n=6). For comparison, degradation of the canonical Suc-LLVY-MCA substrate by the control 26 S proteasome preceded with a rate in the range of 0.6-0.8 nanomoles of AMC released per mg of the enzyme per second. The data are presented as mean±SD or as a representative set from at least 3 independent experiments.
The compounds were evaluated using the 20 S human housekeeping proteasome. It was activated with the Rpt5 derived 10-residue peptide that contains the C-terminal HbYX (hydrophobic-Tyr-any AA) motif activating the proteasome in trans and to some extend mimic the activation by the 19 S regulatory particle (Osmulski and Gaczynska (2013) Molecular pharmacology 84: 104-113; Smith et al. (2006) J. Struct. Biol. 156: 72-83; Smith et al. (2007) Mol. Cell 27: 731-744). Proteolytic activity was monitored over time using a fluorogenic peptide substrate specific for the chymotrypsin-like active center (ChT-L, Suc-LLVY-AMC) in the presence of a concentration range of the inhibitors. […]

In general, IC50 refers to the concentration at which inhibition is half-maximal. Consider `COc1cc(CCCOC(=O)[C@@H]2CCCCN2C(=O)OCc2ccccc2)cc(OC)c1OC` [Compound 3, 1-benzyl 2-(3-(3,4,5-trimethoxyphenyl)propyl) (S)-piperidine-1,2-dicarboxylate], for which the half-inhibitory concentration (IC50) at 26 S proteasome is 1200 nM; in experiment [1] (ChT-L, Suc-LLVY-AMC substrate, 20 S activated with Rpt5 peptide, read-out: IC50) it was 2000 nM; in experiment [1] (summary of FIG. 3A and FIG. 3B, read-out: in vitro determined IC50 values for peptidase activities), 2000 to 3000 nM. Moreover, the “remaining ChT-L activity” value in experiment [1] (tRpt5 added first, n=3) was 53%±7%.
